Laboratory results published in US7109338B2, “1,2-disubstituted 1,4-dihydro-4-oxoquinoline compounds” (priority 1999, dated 2006).
In brackets after ≈: the same amount, converted by molar mass.

How the values were obtained:
HRV31 (41F) = assay: Anti-rhinovirus spectrum (MTT), HRV31; type: cell-based, human rhinovirus; parameters: Anti-Rhinovirus activity, HRV31: unit not given here; settings: HRV31
HRV32 (363) = assay: Anti-rhinovirus spectrum (MTT), HRV32; type: cell-based, human rhinovirus; parameters: Anti-Rhinovirus activity, HRV32: unit not given here; settings: HRV32
HRV50(A2#58) = assay: Anti-rhinovirus spectrum (MTT), HRV50; type: cell-based, human rhinovirus; parameters: Anti-Rhinovirus activity, HRV50: unit not given here; settings: HRV50
HRV39 (209) = assay: Anti-rhinovirus spectrum (MTT), HRV39; type: cell-based, human rhinovirus; parameters: Anti-Rhinovirus activity, HRV39: unit not given here; settings: HRV39
HeLa-S3 cells = assay: Cytotoxicity (MTT, without virus), HeLa-S3; settings: HeLa-S3, no virus, incubated for 4 days
HeLa cells = assay: Cytotoxicity (MTT, without virus), HeLa; settings: HeLa, no virus, incubated for 4 days
[1] = test system: coxsackievirus type A7 (CA7); assay: In vitro anti-picornavirus activity (MTT), CA7; type: cell-based; settings: HeLa-S3 cells, MTT method, 37° C.
HRV61 (6669-CV39) = assay: Anti-rhinovirus spectrum (MTT), HRV61; type: cell-based, human rhinovirus; parameters: Anti-Rhinovirus activity, HRV61: unit not given here; settings: HRV61
HRV1A (E28) = assay: Anti-rhinovirus activity (MTT), HRV1A; type: cell-based, human rhinovirus; parameters: Anti-Rhinovirus activity, HRV1A: unit not given here; settings: for IC50 HRV 1A: HeLa (Ohio strain) cells, MTT method, 33° C.
HRV13 (353) = assay: Anti-rhinovirus spectrum (MTT), HRV13; type: cell-based, human rhinovirus; parameters: Anti-Rhinovirus activity, HRV13: unit not given here; settings: HRV13
HRV10 (204-CV14) = assay: Anti-rhinovirus spectrum (MTT), HRV10; type: cell-based, human rhinovirus; parameters: Anti-Rhinovirus activity, HRV10: unit not given here; settings: HRV10
[2] = test system: echovirus type 11 (Echo 11, Gregory); assay: In vitro anti-picornavirus activity (MTT), Echo 11; type: cell-based; settings: HeLa-S3 cells, MTT method, 37° C.
HRV8(MRH) = assay: Anti-rhinovirus spectrum (MTT), HRV8; type: cell-based, human rhinovirus; parameters: Anti-Rhinovirus activity, HRV8: unit not given here; settings: HRV8
HRV41 (56110) = assay: Anti-rhinovirus spectrum (MTT), HRV41; type: cell-based, human rhinovirus; parameters: Anti-Rhinovirus activity, HRV41: unit not given here; settings: HRV41
HRV5 = assay: Anti-rhinovirus spectrum (MTT), HRV5; type: cell-based, human rhinovirus; parameters: Anti-Rhinovirus activity, HRV5: unit not given here; settings: HRV5
HRV 2 (HGP) = assay: Anti-rhinovirus activity (MTT), HRV2; type: cell-based, human rhinovirus; parameters: Anti-Rhinovirus activity, HRV2: unit not given here; settings: for IC50 HRV2: HeLa (Ohio strain) cells, MTT method, 33° C.
HRV21 (47) = assay: Anti-rhinovirus spectrum (MTT), HRV21; type: cell-based, human rhinovirus; parameters: Anti-Rhinovirus activity, HRV21: unit not given here; settings: HRV21
[3] = test system: clinical isolate (89229T); assay: microbe, parasite or virus in culture; type: cell-based, human rhinovirus; parameters: Anti-Rhinovirus activity, Clinical isolated strain: unit not given here; settings: Clinical isolated strain
HRV36 (342H) = assay: Anti-rhinovirus spectrum (MTT), HRV36; type: cell-based, human rhinovirus; parameters: Anti-Rhinovirus activity, HRV36: unit not given here; settings: HRV36
HRV29 (5582) = assay: Anti-rhinovirus spectrum (MTT), HRV29; type: cell-based, human rhinovirus; parameters: Anti-Rhinovirus activity, HRV29: unit not given here; settings: HRV29
HeLa (Ohio strain)cells = assay: Cytotoxicity (MTT, without virus), HeLa(Ohio); settings: HeLa(Ohio), no virus, incubated for 4 days
[4] = test system: human rhinovirus type 1B (HRV 1B, B632); assay: Anti-rhinovirus activity (MTT), HRV1B; type: cell-based; parameters: Anti-Rhinovirus activity, HRV1B: unit not given here; settings: for IC50 HRV1B: HeLa (Ohio strain) cells, MTT method, 33° C.
HRV14 (1059) = assay: Anti-rhinovirus activity (MTT), HRV14; type: cell-based, human rhinovirus; parameters: Anti-Rhinovirus activity, HRV14: unit not given here; settings: for IC50 HRV 14: HeLa (Ohio strain) cells, MTT method, 33° C.
[5] = test system: Poliovirus type 1 (Polio 1, Sabin); assay: microbe, parasite or virus in culture; type: cell-based
[6] = test system: coxsackievirus type B4 (CB4,JVB); assay: In vitro anti-picornavirus activity (MTT), CB4; type: cell-based; settings: HeLa cells, MTT method, 37° C.
HRV 89 (41617-Gallo) = assay: Anti-rhinovirus activity (MTT), HRV89; type: cell-based, human rhinovirus; parameters: Anti-Rhinovirus activity, HRV89: unit not given here; settings: for IC50 HRV89: HeLa (Ohio strain) cells, MTT method, 33° C.
HRV3(FEB) = assay: Anti-rhinovirus spectrum (MTT), HRV3; type: cell-based, human rhinovirus; parameters: Anti-Rhinovirus activity, HRV3: unit not given here; settings: HRV3
HRV33 (1200) = assay: Anti-rhinovirus spectrum (MTT), HRV33; type: cell-based, human rhinovirus; parameters: Anti-Rhinovirus activity, HRV33: unit not given here; settings: HRV33
HRV16 (11757) = assay: Anti-rhinovirus spectrum (MTT), HRV16; type: cell-based, human rhinovirus; parameters: Anti-Rhinovirus activity, HRV16: unit not given here; settings: HRV16

Structure (SMILES)	Anti-Rhinovirus activity, HRV31 (HRV31 (41F))	Anti-Rhinovirus activity, HRV32 (HRV32 (363))	Anti-Rhinovirus activity, HRV50 (HRV50(A2#58))	Anti-Rhinovirus activity, HRV39 (HRV39 (209))	Cytotoxicity CC50 HeLa-S3 (HeLa-S3 cells) [µg/mL]	Cytotoxicity CC50 HeLa (HeLa cells) [µg/mL]	IC50 CA7 [1] [µg/mL]	Anti-Rhinovirus activity, HRV61 (HRV61 (6669-CV39))	Anti-Rhinovirus activity, HRV1A (HRV1A (E28))	IC50 HRV 1A (HRV1A (E28)) [µg/mL]	Anti-Rhinovirus activity, HRV13 (HRV13 (353))	Anti-Rhinovirus activity, HRV10 (HRV10 (204-CV14))	IC50 Echo 11 [2] [µg/mL]	Anti-Rhinovirus activity, HRV8 (HRV8(MRH))	Anti-Rhinovirus activity, HRV41 (HRV41 (56110))	Anti-Rhinovirus activity, HRV5 (HRV5)	Anti-Rhinovirus activity, HRV2 (HRV 2 (HGP))	IC50 HRV2 (HRV 2 (HGP)) [µg/mL]	Anti-Rhinovirus activity, HRV21 (HRV21 (47))	Anti-Rhinovirus activity, Clinical isolated strain [3]	further results
CCn1c2c(c(=O)c3cc(CC(C)C)ccc31)Cc1cc(OC)ccc1-2 [Compound B15]	0.38	0.65	0.28	0.46	>2.5	>2.5	2.2 (≈ 6.33 µM)	0.39	>2.5	>2.5	0.18	1.1	0.27 (≈ 0.777 µM)	0.38	0.18	0.39	0.44	0.44 (≈ 1.27 µM)	0.34	1.1	Anti-Rhinovirus activity, HRV36 (HRV36 (342H)): 0.32; Anti-Rhinovirus activity, HRV29 (HRV29 (5582)): 0.67; Cytotoxicity CC50 HeLa(Ohio) (HeLa (Ohio strain)cells): >2.5 µg/mL; Anti-Rhinovirus activity, HRV1B [4]: 0.36; IC50 HRV1B [4]: 0.36 µg/mL (≈ 1.04 µM); Anti-Rhinovirus activity, HRV14 (HRV14 (1059)): 0.84; IC50 HRV 14 (HRV14 (1059)): 0.84 µg/mL (≈ 2.42 µM); IC50 Polio 1 [5]: 0.49 µg/mL (≈ 1.41 µM); IC50 CB4 [6]: 1.9 µg/mL (≈ 5.47 µM); Anti-Rhinovirus activity, HRV89 (HRV 89 (41617-Gallo)): 0.39; IC50 HRV89 (HRV 89 (41617-Gallo)): 0.39 µg/mL (≈ 1.12 µM); Anti-Rhinovirus activity, HRV3 (HRV3(FEB)): 1.1; Anti-Rhinovirus activity, HRV33 (HRV33 (1200)): 0.29; Anti-Rhinovirus activity, HRV16 (HRV16 (11757)): 1.2
CCn1c2c(c(=O)c3cc(C(C)C)ccc31)Cc1cc(OC)ccc1-2 [Compound B10]	0.15	0.36	0.10	0.39	>2.5	>2.5	1.4 (≈ 4.2 µM)	0.24	1.9	1.9 (≈ 5.7 µM)	0.12	0.41	0.14 (≈ 0.42 µM)	0.20	0.007	0.24	0.16	0.16 (≈ 0.48 µM)	0.16	0.75	Anti-Rhinovirus activity, HRV36 (HRV36 (342H)): 0.17; Anti-Rhinovirus activity, HRV29 (HRV29 (5582)): 0.44; Cytotoxicity CC50 HeLa(Ohio) (HeLa (Ohio strain)cells): >2.5 µg/mL; Anti-Rhinovirus activity, HRV1B [4]: 0.25; IC50 HRV1B [4]: 0.25 µg/mL (≈ 0.75 µM); Anti-Rhinovirus activity, HRV14 (HRV14 (1059)): 0.52; IC50 HRV 14 (HRV14 (1059)): 0.52 µg/mL (≈ 1.56 µM); IC50 Polio 1 [5]: 0.17 µg/mL (≈ 0.51 µM); IC50 CB4 [6]: 0.57 µg/mL (≈ 1.71 µM); Anti-Rhinovirus activity, HRV89 (HRV 89 (41617-Gallo)): 0.33; IC50 HRV89 (HRV 89 (41617-Gallo)): 0.33 µg/mL (≈ 0.99 µM); Anti-Rhinovirus activity, HRV3 (HRV3(FEB)): 0.48; Anti-Rhinovirus activity, HRV33 (HRV33 (1200)): 0.11; Anti-Rhinovirus activity, HRV16 (HRV16 (11757)): 0.57
CCn1c2c(c(=O)c3cc(C(C)C)ccc31)Cc1cc(OC)c(OC)cc1-2 [Compound B22]	0.14	0.19	0.17	0.46	>10	>10	1.9 (≈ 5.23 µM)	0.34	>5.9	>5.9	0.13	0.53	0.39 (≈ 1.07 µM)	0.46	0.14	0.43	0.50	0.55 (≈ 1.51 µM)	0.18	0.43	Anti-Rhinovirus activity, HRV36 (HRV36 (342H)): 0.25; Anti-Rhinovirus activity, HRV29 (HRV29 (5582)): 0.56; Cytotoxicity CC50 HeLa(Ohio) (HeLa (Ohio strain)cells): >10 µg/mL; Anti-Rhinovirus activity, HRV1B [4]: 0.44; IC50 HRV1B [4]: 0.44 µg/mL (≈ 1.21 µM); Anti-Rhinovirus activity, HRV14 (HRV14 (1059)): 0.86; IC50 HRV 14 (HRV14 (1059)): 0.86 µg/mL (≈ 2.37 µM); IC50 Polio 1 [5]: 0.54 µg/mL (≈ 1.49 µM); IC50 CB4 [6]: 1.3 µg/mL (≈ 3.58 µM); Anti-Rhinovirus activity, HRV89 (HRV 89 (41617-Gallo)): 0.36; IC50 HRV89 (HRV 89 (41617-Gallo)): 0.36 µg/mL (≈ 0.99 µM); Anti-Rhinovirus activity, HRV3 (HRV3(FEB)): 0.97; Anti-Rhinovirus activity, HRV33 (HRV33 (1200)): 0.16; Anti-Rhinovirus activity, HRV16 (HRV16 (11757)): 1.2
CCn1c2c(c(=O)c3c(C(C)C)c(OC)ccc31)Cc1ccccc1-2 [Compound B7]	0.13	0.30	0.12	0.38	>2.5	>2.5	1.4 (≈ 4.2 µM)	0.28	1.7	1.7 (≈ 5.1 µM)	0.13	0.41	0.25 (≈ 0.75 µM)	0.32	0.064	0.22	0.36	0.36 (≈ 1.08 µM)	0.11	0.50	Anti-Rhinovirus activity, HRV36 (HRV36 (342H)): 0.16; Anti-Rhinovirus activity, HRV29 (HRV29 (5582)): 0.43; Cytotoxicity CC50 HeLa(Ohio) (HeLa (Ohio strain)cells): >2.5 µg/mL; Anti-Rhinovirus activity, HRV1B [4]: 0.20; IC50 HRV1B [4]: 0.17 µg/mL (≈ 0.51 µM); Anti-Rhinovirus activity, HRV14 (HRV14 (1059)): 0.49; IC50 HRV 14 (HRV14 (1059)): 0.49 µg/mL (≈ 1.47 µM); IC50 Polio 1 [5]: 0.42 µg/mL (≈ 1.26 µM); IC50 CB4 [6]: 0.52 µg/mL (≈ 1.56 µM); Anti-Rhinovirus activity, HRV89 (HRV 89 (41617-Gallo)): 0.30; IC50 HRV89 (HRV 89 (41617-Gallo)): 0.30 µg/mL (≈ 0.9 µM); Anti-Rhinovirus activity, HRV3 (HRV3(FEB)): 0.49; Anti-Rhinovirus activity, HRV33 (HRV33 (1200)): 0.097; Anti-Rhinovirus activity, HRV16 (HRV16 (11757)): 0.98
CCn1c2c(c(=O)c3cc(C(C)C)ccc31)Cc1ccccc1-2.Cl [Compound B3]	0.29	0.61	0.20	1.7	>4	>4	2.1	0.80	2.6	2.6	0.17	1.8	0.35	0.46	0.20	0.36	0.54	0.54	0.20	1.9	Anti-Rhinovirus activity, HRV36 (HRV36 (342H)): 0.30; Anti-Rhinovirus activity, HRV29 (HRV29 (5582)): 1.5; Cytotoxicity CC50 HeLa(Ohio) (HeLa (Ohio strain)cells): >4 µg/mL; Anti-Rhinovirus activity, HRV1B [4]: 0.30; IC50 HRV1B [4]: 0.30 µg/mL; Anti-Rhinovirus activity, HRV14 (HRV14 (1059)): 0.74; IC50 HRV 14 (HRV14 (1059)): 0.74 µg/mL; IC50 Polio 1 [5]: 0.72 µg/mL; IC50 CB4 [6]: 0.82 µg/mL; Anti-Rhinovirus activity, HRV89 (HRV 89 (41617-Gallo)): 0.57; IC50 HRV89 (HRV 89 (41617-Gallo)): 0.57 µg/mL; Anti-Rhinovirus activity, HRV3 (HRV3(FEB)): 2.9; Anti-Rhinovirus activity, HRV33 (HRV33 (1200)): 0.20; Anti-Rhinovirus activity, HRV16 (HRV16 (11757)): 2.3
